Test results published in patent US20130184313A1, “NICOTINIC ACETYLCHOLINE RECEPTOR LIGANDS AND THE USES THEREOF” (The Board of Trustees of the University of Illinois, priority 2009, published 2013).
Several values for one entry are separate records, joined by “and”; a condition that tells them apart may be missing. Equal values may be shown once. Where a name gives a salt, the structure may show the parent alone. Marks after values point to notes of the source that are not given here.

Legend:
male Balb/cJ mice = assay: Forced swim test in mice; type: in vivo
Description: The subjects were male Balb/cJ mice obtained from Jackson Laboratory, Bar Harbor, Me. Mice were housed 4 per cage under controlled conditions of temperature, relative humidity and light-dark cycle with free access to food and water.
Mice were individually placed into clear glass cylinders (i.e., 15 cm tall×10 cm wide, 1 L beakers) containing 23±1° C. water 12 cm deep (approximately 800 mL). The time the animal spent immobile was recorded over a 6 min trial. Immobility was described as the postural position of floating in the water.
The mice were injected intraperitoneally (i.p.) 30 minutes before the start of the test. In another set of experiments, the test compounds were administered orally (p.o.) 30 minutes before the start of the test.
The length of time spent floating was analyzed by Analysis of Variance (ANOVA) with dose of drug as the between-subject factor and time spent immobile across the 6 min test as the dependent variable. Post-hoc comparisons between the treatment groups and control group were made using Fisher's PLSD test. A significance level of 5% was used throughout.

[1] = molecular target: α-Bungarotoxin-insensitive (α4β2) neuronal nicotinic receptor (Rattus norvegicus, UniProt P09483+P12390); assay: biochemical; settings: read-out: percent inhibition of the control radioligand specific binding
α4β4 nicotinic receptor = molecular target: T1, α4β4 nicotinic receptor (Rattus norvegicus, UniProt P09483+P12392); type: binding
T1 construct: expressed in transfected cells; host or cells: stably transfected cell lines (e.g., HEK293, COS, CHO, NIH3T3)
T1 sequence (P09483 31-630): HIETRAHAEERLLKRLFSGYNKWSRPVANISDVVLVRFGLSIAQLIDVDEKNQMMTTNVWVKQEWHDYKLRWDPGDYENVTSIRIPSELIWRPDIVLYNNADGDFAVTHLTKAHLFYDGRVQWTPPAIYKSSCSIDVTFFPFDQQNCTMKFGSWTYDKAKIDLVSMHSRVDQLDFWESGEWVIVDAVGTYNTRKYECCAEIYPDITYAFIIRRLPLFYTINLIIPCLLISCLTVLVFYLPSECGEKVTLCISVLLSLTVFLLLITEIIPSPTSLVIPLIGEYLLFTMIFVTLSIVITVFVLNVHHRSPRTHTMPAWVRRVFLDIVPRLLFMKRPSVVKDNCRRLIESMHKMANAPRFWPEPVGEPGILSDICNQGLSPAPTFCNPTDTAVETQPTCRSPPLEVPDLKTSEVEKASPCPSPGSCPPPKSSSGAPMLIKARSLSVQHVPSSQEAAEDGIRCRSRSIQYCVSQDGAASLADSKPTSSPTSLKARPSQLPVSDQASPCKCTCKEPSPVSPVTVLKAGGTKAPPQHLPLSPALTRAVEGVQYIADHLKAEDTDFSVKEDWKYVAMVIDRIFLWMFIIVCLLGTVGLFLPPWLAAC
T1 sequence (P12392 21-495): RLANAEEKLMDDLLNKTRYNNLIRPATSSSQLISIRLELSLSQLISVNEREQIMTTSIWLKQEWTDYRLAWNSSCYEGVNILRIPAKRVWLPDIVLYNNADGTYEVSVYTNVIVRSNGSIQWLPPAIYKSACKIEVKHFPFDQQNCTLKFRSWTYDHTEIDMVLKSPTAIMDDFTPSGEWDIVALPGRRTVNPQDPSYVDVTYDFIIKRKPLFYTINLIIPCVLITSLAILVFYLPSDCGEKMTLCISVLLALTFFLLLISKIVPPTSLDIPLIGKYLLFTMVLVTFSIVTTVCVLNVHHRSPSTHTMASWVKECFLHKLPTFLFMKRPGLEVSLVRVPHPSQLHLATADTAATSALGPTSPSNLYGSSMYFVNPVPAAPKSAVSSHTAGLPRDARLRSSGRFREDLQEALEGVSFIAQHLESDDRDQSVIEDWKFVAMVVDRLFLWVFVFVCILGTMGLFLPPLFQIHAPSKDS
Description: All binding assays were performed according to procedures set forth in the University of North Carolina at Chapel Hill National Institute of Mental Health Psychoactive Drug Screening Program Assay Protocol Book (pp. 50-54; PI: Bryan L. Roth MD, PhD).
Nicotinic receptors: α2β2, α2β4, α3β2, α3β4, α4β2, α4β4, endogenous α4β2. Assay buffer: 50 mM Tris-HCl, pH 7.4. Membrane fraction source: Stably transfected cell lines (e.g., HEK293, COS, CHO, NIH3T3) (α2β2, α2β4, α3β2, α3β4, α4β2, α4β4) or rat forebrain (α4β2).
Aliquots (50 μl) of radioligand were dispensed into the wells of a 96-well plate containing 100 μl of assay buffer. Then, duplicate 50-0 aliquots of the test and reference compound dilutions were added. […]
The 250-μl reactions were incubated at room temperature and shielded from light (to prevent photolysis of light-sensitive ligands) for 4 hours, then harvested by rapid filtration onto Whatman GF/B glass fiber filters pre-soaked with 0.5% polyethyleneimine using a 96-well Brandel harvester. […] The tubes were capped, labeled, and counted by liquid scintillation counting. […]

Sequence of α-Bungarotoxin-insensitive (α4β2) neuronal nicotinic receptor (P09483 31-630): as the sequence (P09483 31-630) above
Sequence of α-Bungarotoxin-insensitive (α4β2) neuronal nicotinic receptor (P12390 25-500): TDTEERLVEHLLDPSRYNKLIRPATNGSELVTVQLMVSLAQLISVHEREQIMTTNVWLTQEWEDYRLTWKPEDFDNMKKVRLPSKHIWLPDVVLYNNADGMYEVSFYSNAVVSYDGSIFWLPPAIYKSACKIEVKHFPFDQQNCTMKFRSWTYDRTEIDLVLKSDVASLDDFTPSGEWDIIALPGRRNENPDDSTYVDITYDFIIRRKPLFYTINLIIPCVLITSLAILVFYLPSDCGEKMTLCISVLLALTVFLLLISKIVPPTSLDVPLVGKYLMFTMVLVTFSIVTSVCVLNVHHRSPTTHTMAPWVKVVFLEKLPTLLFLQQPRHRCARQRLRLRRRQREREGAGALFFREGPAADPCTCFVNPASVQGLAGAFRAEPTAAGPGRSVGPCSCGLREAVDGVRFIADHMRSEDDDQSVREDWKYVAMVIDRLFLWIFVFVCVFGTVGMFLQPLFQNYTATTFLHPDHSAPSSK

SMILES	inhibition at 0.1 µM [1]	further results
OCCCCC#Cc1cncc(OC[C@@H]2CCN2)c1 [AMOP—H—OH]		effects in the forced swim test as indicated by a reduction in immobility time (male Balb/cJ mice; mouse, in vivo, ip): positive effects; Average Immobility Time (male Balb/cJ mice; mouse, in vivo, ip, 0.3 mg/kg): 116.7 s; Average Immobility Time (male Balb/cJ mice; mouse, in vivo, ip, 1 mg/kg): 20.2** seconds; Average Immobility Time (male Balb/cJ mice; mouse, in vivo, ip, 10 mg/kg): 5.3** seconds
OCC[C@H]1C[C@@H]1c1cncc(OC[C@@H]2CCN2)c1 [Example 2, 2-[(1R,2S)-2-[5-[(2(S)-Azetidinyl)methoxy]-3-pyridyl]cyclopropyl]ethanol]	59 to 100%	effects in the forced swim test as indicated by a reduction in immobility time (male Balb/cJ mice; mouse, in vivo, ip): positive effects; Average Immobility Time (male Balb/cJ mice; mouse, in vivo, ip, 10 mg/kg): 44** seconds; Average Immobility Time (male Balb/cJ mice; mouse, in vivo, ip, 20 mg/kg): 7** seconds
c1ccc(OC[C@H]2C[C@@H]2c2cncc(OC[C@@H]3CCN3)c2)cc1 [Example 11, 3-[(2(S)-Azetidinyl)methoxy]-5-[(1S,2S)-2-(phenoxymethyl)cyclopropyl]pyridine]	59 to 100%	
c1cncc(OC[C@H]2C[C@@H]2c2cncc(OC[C@@H]3CCN3)c2)c1 [Example 12, 3-[(2(S)-Azetidinyl)methoxy]-5-[(1S,2S)-2-[(3-pyridyloxy)methyl]cyclopropyl]pyridine]	59 to 100%	
c1ccc(COC[C@H]2C[C@@H]2c2cncc(OC[C@@H]3CCN3)c2)nc1 [Example 14, 3-[(2(S)-Azetidinyl)methoxy]-5-[(1S,2S)-2-[(2-pyridinylmethoxy)methyl]cyclopropyl]pyridine]	59 to 100%	
OCCCc1cccc(-c2cncc(OC[C@@H]3CCN3)c2)c1 [Example 15c, 3-[3-[5-[(2(S)-Azetidinyl)methoxy]-3-pyridyl]phenyl]-1-propanol]	59 to 100%	change in immobility time compared to the vehicle (male Balb/cJ mice; mouse, in vivo): did not show any change; reduction in immobility time compared to vehicle (male Balb/cJ mice; mouse, in vivo): 24.5 s; effects in the forced swim test as indicated by a reduction in immobility time (male Balb/cJ mice; mouse, in vivo, ip): positive effects; Average Immobility Time (male Balb/cJ mice; mouse, in vivo, ip, 5 mg/kg): 110.6 s; Average Immobility Time (male Balb/cJ mice; mouse, in vivo, ip, 10 mg/kg): 105.1** seconds and 85.3** seconds; Average Immobility Time (male Balb/cJ mice; mouse, in vivo, ip, 20 mg/kg): 49.7** seconds
OCCCc1ccc(-c2cncc(OC[C@@H]3CCN3)c2)cc1 [Example 15d]	59 to 100%	
OCCCc1cccc(-c2cncc(OC[C@H]3CCN3)c2)c1 [Example 19, 3-[3-[5-[(2(R)-Azetidinyl)methoxy]-3-pyridyl]phenyl]-1-propanol]	59 to 100%	
CC(=O)NCCCc1cccc(-c2cncc(OC[C@@H]3CCN3)c2)c1 [Example 22, N-(3-[3-[5-[(2(S)-Azetidinyl)methoxy]-3-pyridyl]phenyl]propyl]acetamide]	59 to 100%	
OCCc1cccc(-c2cncc(OC[C@@H]3CCN3)c2)c1 [Example 24, 2-[3-[5-[(2(S)-Azetidinyl)methoxy]-3-pyridyl]phenyl]ethanol]	59 to 100%	
c1ccc(COCCc2cccc(-c3cncc(OC[C@@H]4CCN4)c3)c2)cc1 [Example 27, 3-[((2S)-Azetidinyl)methoxy]-5-[3-[2-(benzyloxy)ethyl]phenyl]pyridine]	59 to 100%	
OCc1cc(-c2cncc(OC[C@@H]3CCN3)c2)on1 [Example 37, 5-[5-(2(S)-Azetidinylmethoxy)-3-pyridyl]-3-isoxazolylmethanol]	59 to 100%	
CN1CCC[C@H]1COc1cncc(-c2cc(CCCOc3ccccc3)no2)c1 [Example 41, 3-[(1-Methyl-2(S)-pyrrolidinyl)methoxy]-5-[3-(3-phenoxypropyl)-5-isoxazolyl]pyridine Hydrochloride]	59 to 100%	
c1ncc(N2CC3CC3C2)cc1OC[C@@H]1CCN1 (stereo partly drawn) [Example 46, 3-[5-[(2(S)-Azetidinyl)methoxy]-3-pyridyl]-3-azabicyclo[3.1.0]hexane]	59 to 100%	
c1ccc(COCCC2CCN(c3cncc(OC[C@@H]4CCCN4)c3)CC2)cc1 [Example 51, 3-[4-[2-(Benzyloxy)ethyl]-1-piperidinyl]-5-[(2(S)-pyrrolidinyl)methoxy]pyridine]	59 to 100%	
c1ccc(OCCC2CCN(c3cncc(OC[C@@H]4CCCN4)c3)CC2)cc1 [Example 58, 3-[4-(2-Phenoxyethyl)-1-piperidinyl]-5-[(2(S)-pyrrolidinyl)methoxy]pyridine]	8 to 28%	
c1ccc(COCCC2CCN(c3cncc(OC[C@H]4CCCN4)c3)CC2)cc1 [Example 62, 3-[4-[2-(Benzyloxy)ethyl]-1-piperidinyl]-5-[(2(R)-pyrrolidinyl)methoxy]pyridine]	8 to 28%	
Oc1ccc(OCCC2CCN(c3cncc(OC[C@@H]4CCCN4)c3)CC2)cc1 [Example 70, 4-[2-[1-[5-[(2(S)-Pyrrolidinyl)methoxy]-3-pyridyl]-4-piperidinyl]ethoxy]phenol]	8 to 28%	
CN[C@H]1CC[C@@H](c2ccc(Cl)c(Cl)c2)c2ccccc21 [Sertraline, sertraline, reference compound]		Average Immobility Time (male Balb/cJ mice; Table 2, 20 mg/kg i.p., 30 min before test, 6 min trial, vehicle 126.3): 11.99** seconds; Average Immobility Time (male Balb/cJ mice; Table 4, 10 mg/kg i.p., 30 min before test, 6 min trial, vehicle 115.2): 23.7** seconds; Average Immobility Time (male Balb/cJ mice; Table 5, 10 mg/kg i.p., 30 min before test, 6 min trial, vehicle 104.9): 47.8** seconds
OCC[C@H]1C[C@@H]1c1cncc(OC[C@@H]2CCN2)c1 [drawing 418]		Ki (α4β4 nicotinic receptor): 83 nM
